Measurements reported in patent publication EP1105395B1, “PHOTOCYCLIZED RAPAMYCINS” (priority 1998, dated 2000).
In brackets after ≈: the same amount, converted by molar mass. Like-named read-outs stand apart in the source and are kept apart here.

How the values were obtained:
Assay type in all cases: cell-based
[1] = tested on: A2780DDP (ovarian - resistant to cis-platin); test: Antineoplastic activity, tumor cell growth inhibition (sulforhodamine B); settings: A2780DDP cells, 48 hours, inhibition of growth
Excerpt: (§1) Antineoplastic activity for the compounds of this invention was established by evaluating the antineoplastic activity of a representative compound of this invention (Compound I) against six tumor cell lines in vitro. Briefly, tumor cells from six cell lines were placed in wells of a 96 well microtiter plate. The following tumor cell lines were used: A2780S (ovarian), A2780DDP (ovarian - resistant to cis-platin), A431 (vulva epidermoid origin), SW620 (colon), SKBR3 (breast), and MDA-MB-435 (breast). The tumors cells were grown in the presence of serial dilutions of the compound to be evaluated for 48 hours, and cell growth determined using a colorimetric procedure (sulforhrodamine B). The inhibition of growth was calculated compared to the number of cells at the time of test compound addition. Results are expressed as an IC50 (µg/ml). […] In particular, the compounds of this invention are useful against solid tumors, including sarcomas and carcinomas; and more particularly against astrocytomas, prostate cancer, breast cancer, colon cancer, small cell lung cancer, and ovarian cancer; and adult T-cell leukemia/lymphoma.

MDA-MB-435 (breast) = test: as above; settings: MDA-MB-435 cells, 48 hours, inhibition of growth
Excerpt: as §1

SW620 (colon) = test: as above; settings: SW620 cells, 48 hours, inhibition of growth
Excerpt: as §1

A2780S (ovarian) = test: as above; settings: A2780S cells, 48 hours, inhibition of growth
Excerpt: as §1

[2] = tested on: A431 (vulva epidermoid origin); test: as above; settings: A431 cells, 48 hours, inhibition of growth
Excerpt: as §1

SKBR3 (breast) = test: as above; settings: SKBR3 cells, 48 hours, inhibition of growth
Excerpt: as §1

Candida zeylanoided = test: Antifungal activity, microtiter broth dilution MIC; settings: Candida zeylanoided ID 94-15, 35 °C, 24-48 hours
Description: (§2) Antifungal activity for the compounds of this invention was established by evaluating a representative compound of this invention (Compound I) against several strains of fungi. Briefly the following procedure was used to evaluate such activity. A 96 U-bottom microtiter plate was filled (50 µl/well) with RPMI 1640. The compounds to be evaluated were placed in appropriate wells, and serial diluted in successive wells to provide 11 dilutions. The concentrations ranged from 64 through 0.06 µg/ml. An adjusted inoculum of fungi (50 µl) was added to each well and the plates were incubated at 35 °C for 24-48 hours. […]

Candida albicans = test: Antifungal activity, microtiter broth dilution MIC; settings: 35 °C, 24-48 hours
Description: as §2

Aspergillus fumigatus = test: Antifungal activity, microtiter broth dilution MIC; settings: Aspergillus fumigatus ID ATCC 26933, 35 °C, 24-48 hours
Description: as §2

Candida lusitaniae = test: Antifungal activity, microtiter broth dilution MIC; settings: Candida lusitaniae ID 94-3, 35 °C, 24-48 hours
Description: as §2

Cryptococcus neoformans = test: Antifungal activity, microtiter broth dilution MIC; settings: Cryptococcus neoformans ID ATCC 90112, 35 °C, 24-48 hours
Description: as §2

Aspergillus niger = test: Antifungal activity, microtiter broth dilution MIC; settings: Aspergillus niger ID S-430, 35 °C, 24-48 hours
Description: as §2

Candida tropicalis = test: Antifungal activity, microtiter broth dilution MIC; settings: 35 °C, 24-48 hours
Description: as §2

Aspergillus flavus = test: Antifungal activity, microtiter broth dilution MIC; settings: Aspergillus flavus ID ATCC 12963, 35 °C, 24-48 hours
Description: as §2

Candida parapsilosis = test: Antifungal activity, microtiter broth dilution MIC; settings: 35 °C, 24-48 hours
Description: as §2

Candida glabrata = test: Antifungal activity, microtiter broth dilution MIC; settings: Candida glabrata ID ATCC 90030, 35 °C, 24-48 hours
Description: as §2

Candida rugosa = test: Antifungal activity, microtiter broth dilution MIC; settings: Candida rugosa ID 94-10, 35 °C, 24-48 hours
Description: as §2

Saccharomyces cerevisiae = test: Antifungal activity, microtiter broth dilution MIC; settings: Saccharomyces cerevisiae ID ATCC 2601, 35 °C, 24-48 hours
Description: as §2

Candida pseudotropicalis = test: Antifungal activity, microtiter broth dilution MIC; settings: Candida pseudotropicalis ID ATCC 28838, 35 °C, 24-48 hours
Description: as §2

[3] = tested on: Filobasidiella neoformans; test: Antifungal activity, microtiter broth dilution MIC; settings: Filobasidiella neoformans ID ATCC 7472, 35 °C, 24-48 hours
Description: as §2

Candida krussii = test: Antifungal activity, microtiter broth dilution MIC; settings: Candida krussii ID 94-2; 35 °C, 24-48 hours; read-out: MIC
Description: as §2

CO[C@H]1C[C@@H]2CC[C@@H](C)[C@@](O)(O2)[C@]2(O)C(=O)N3[C@@H](CCC[C@@H]32)C(=O)O[C@H]([C@H](C)C[C@@H]2CC[C@@H](O)[C@H](OC)C2)CC(=O)[C@H](C)/C=C(\C)[C@@H](O)[C@@H](OC)C(=O)[C@H](C)C[C@H](C)/C=C/C=C/C=C/1C [Compound I, (1S, 2R, 3R, 6S, 8S, 9E, 11E, 13E, 15S, 17R, 19R, 20R, 21E, 23R, 26S, 29S, 33R)-1,2, 30-Trihydroxy-26-[(1R)-2-[(1S, 3R, 4R)-4-hydroxy-3-methoxycyclohexyl]-1-methylethyl]-8, 19-dimethoxy-3,9,15, 17, 21, 23-hexamethyl-27, 36-dioxa-35-azatetracyclo[27.4.2.1.[2, 6].0 [33, 35]] hexatriaconta-9, 11, 13, 21-tetraene-18, 24, 28, 34-tetrone]
IC50 [1]: 6.51 µg/mL (≈ 7.12 µM) | IC50 (MDA-MB-435 (breast)): 27.28 µg/mL (≈ 29.8 µM) | IC50 (SW620 (colon)): 24.84 µg/mL (≈ 27.2 µM) | IC50 (A2780S (ovarian)): 8.756 µg/mL (≈ 9.58 µM) | IC50 [2]: 20.46 µg/mL (≈ 22.4 µM) | IC50 (SKBR3 (breast)): 7.029 µg/mL (≈ 7.69 µM) | MIC (Candida zeylanoided): 8 µg/mL (≈ 8.75 µM) | MIC (Candida albicans; Candida albicans ID 94-1): 16 µg/mL (≈ 17.5 µM) | MIC (Candida albicans; Candida albicans ID 1063): 16 µg/mL (≈ 17.5 µM) | MIC (Candida albicans; Candida albicans ID 1117): 32 µg/mL (≈ 35 µM) | MIC (Candida albicans; Candida albicans ID ATCC 90028): 16 µg/mL (≈ 17.5 µM) | MIC (Candida albicans; Candida albicans ID C-83): ≥64 µg/mL | MIC (Aspergillus fumigatus): ≥64 µg/mL | MIC (Candida lusitaniae): 4 µg/mL (≈ 4.38 µM) | MIC (Cryptococcus neoformans): 8 µg/mL (≈ 8.75 µM) | MIC (Aspergillus niger): ≥64 µg/mL | MIC (Candida tropicalis; Candida tropicalis ID 94-13): 16 µg/mL (≈ 17.5 µM) | MIC (Candida tropicalis; Candida tropicalis ID 94-14): 8 µg/mL (≈ 8.75 µM) | MIC (Aspergillus flavus): ≥64 µg/mL | MIC (Candida parapsilosis; Candida parapsilosis ID 94-8): 8 µg/mL (≈ 8.75 µM) | MIC (Candida parapsilosis; Candida parapsilosis ID 94-9): 8 µg/mL (≈ 8.75 µM) | MIC (Candida parapsilosis; Candida parapsilosis ID ATCC 90018): 8 µg/mL (≈ 8.75 µM) | MIC (Candida glabrata): 8 µg/mL (≈ 8.75 µM) | MIC (Candida rugosa): 16 µg/mL (≈ 17.5 µM) | MIC (Saccharomyces cerevisiae): 8 µg/mL (≈ 8.75 µM) | MIC (Candida pseudotropicalis): 4 µg/mL (≈ 4.38 µM) | MIC [3]: ≥64 µg/mL

OC(Cn1cncn1)(Cn1cncn1)c1ccc(F)cc1F [Fluconazole]
MIC (Candida zeylanoided; read-out: MIC): ≥ 16 µg/mL | MIC (Candida krussii): ≥ 16 µg/mL | MIC (Candida albicans; Candida albicans, ATCC90028, Candida albicans ID ATCC 90028, read-out: MIC): ≥ 16 µg/mL | MIC (Candida albicans; Candida albicans, Candida albicans ID 94-1, read-out: MIC): ≥ 16 µg/mL | MIC (Candida albicans; Candida albicans, Candida albicans ID 1063, read-out: MIC): 4 µg/mL (≈ 13.1 µM) | MIC (Candida albicans; Candida albicans, Candida albicans ID 1117, read-out: MIC): 8 µg/mL (≈ 26.1 µM) | MIC (Candida albicans; Candida albicans, Candida albicans ID C-83, read-out: MIC): ≥ 16 µg/mL | MIC (Aspergillus fumigatus; ATCC26933, read-out: MIC): > 16 µg/mL | MIC (Candida lusitaniae; Clavispora lusitaniae, read-out: MIC): 1 µg/mL (≈ 3.27 µM) | MIC (Cryptococcus neoformans; ATCC90112, read-out: MIC): 8 µg/mL (≈ 26.1 µM) | MIC (Aspergillus niger; read-out: MIC): > 16 µg/mL | MIC (Candida tropicalis; Candida tropicalis ID 94-13): ≥16 µg/mL | MIC (Candida tropicalis; Candida tropicalis ID 94-14, read-out: MIC): ≥ 16 µg/mL | MIC (Aspergillus flavus; ATCC12963, read-out: MIC): > 16 µg/mL | MIC (Candida parapsilosis; Lodderomyces parapsilosis, ATCC90018, Candida parapsilosis ID ATCC 90018, read-out: MIC): 0.5 µg/mL (≈ 1.63 µM) | MIC (Candida parapsilosis; Lodderomyces parapsilosis, Candida parapsilosis ID 94-8, read-out: MIC): 0.5 µg/mL (≈ 1.63 µM) | MIC (Candida parapsilosis; Lodderomyces parapsilosis, Candida parapsilosis ID 94-9, read-out: MIC): 0.5 µg/mL (≈ 1.63 µM) | MIC (Candida glabrata; Nakaseomyces glabratus, ATCC90030, read-out: MIC): 4 µg/mL (≈ 13.1 µM) | MIC (Candida rugosa; Diutina rugosa, read-out: MIC): 2 µg/mL (≈ 6.53 µM) | MIC (Saccharomyces cerevisiae; ATCC2601, read-out: MIC): 8 µg/mL (≈ 26.1 µM) | MIC (Candida pseudotropicalis; Kluyveromyces marxianus, ATCC28838, read-out: MIC): ≤ 0.12 µg/mL | MIC ([3]; Cryptococcus neoformans, ATCC7472, read-out: MIC): 16 µg/mL (≈ 52.2 µM)
